From patent US11274083B2, “Substituted thiophenyl uracils, salts thereof and the use thereof as herbicidal agents” (Syngenta Crop Protection AG, priority 2017, dated 2022)

Experiments:
Format in all cases: in vivo
[1] = system: Matricaria inodora; test: Herbicidal action pre-emergence, greenhouse pot test
[2] = system: Avena fatua; test: Herbicidal action post-emergence, greenhouse pot test; details: application rate 80 g/ha
Summary of the method: (§1)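 Plants grown from seed in sandy loam are treated at the one-leaf stage with aqueous suspensions or emulsions, 600 L/ha water rate, 0.5% additive, at 80 g/ha or lower. They then stand about 3 weeks in the greenhouse before visual scoring against untreated controls.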

[3] = system: Hordeum murinum; test: as above; details: application rate 80 g/ha
Summary of the method: as §1

[4] = system: Matricaria inodora; test: as above
Summary of the method: as §1

[5] = system: Veronica persica; test: as above
Summary of the method: as §1

[6] = system: Amaranthus retroflexus; test: as above
Summary of the method: as §1

[7] = system: Polygonum convolvulus; test: as above
Summary of the method: as §1

[8] = system: Pharbitis purpurea; test: as above
Summary of the method: as §1

[9] = system: Abutilon theophrasti; test: as above
Summary of the method: as §1

[10] = system: Setaria viridis; test: as above
Summary of the method: as §1

[11] = system: Alopecurus myosuroides; test: as above; details: scored visually after about 3 weeks vs untreated controls
Summary of the method: as §1

[12] = system: Echinochloa crus-galli; test: as above
Summary of the method: as §1

[13] = system: Lolium rigidum; test: as above; details: application rate 80 g/ha
Summary of the method: as §1

[14] = system: Stellaria media; test: as above
Summary of the method: as §1

[15] = system: Viola tricolor; test: as above
Summary of the method: as §1

[16] = system: Avena fatua; test: Herbicidal action pre-emergence, greenhouse pot test; details: application rate 320 g/ha
Summary of the method: (§2)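 Efficacy (%) was estimated visually after about 3 weeks in the greenhouse by comparison with untreated pots. Before that, seeded pots received a surface spray of formulated compound at 320 g/ha or less.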

[17] = system: Hordeum murinum; test: as above; details: application rate 320 g/ha
Summary of the method: as §2

[18] = system: Veronica persica; test: as above; details: application rate 80 g/ha
Summary of the method: as §2

[19] = system: Cyperus esculentus; test: as above
Summary of the method: as §2

[20] = system: Amaranthus retroflexus; test: as above; details: application rate 80 g/ha
Summary of the method: as §2

[21] = system: Polygonum convolvulus; test: as above
Summary of the method: as §2

[22] = system: Pharbitis purpurea; test: as above
Summary of the method: as §2

[23] = system: Abutilon theophrasti; test: as above
Summary of the method: as §2

[24] = system: Setaria viridis; test: as above
Summary of the method: as §2

[25] = system: Alopecurus myosuroides; test: as above; details: application rate 320 g/ha
Summary of the method: as §2

[26] = system: Echinochloa crus-galli; test: as above; details: application rate 320 g/ha
Summary of the method: as §2

[27] = system: Lolium rigidum; test: as above; details: application rate 320 g/ha
Summary of the method: as §2

[28] = system: Stellaria media; test: as above
Summary of the method: as §2

[29] = system: Viola tricolor; test: as above
Summary of the method: as §2

[30] = system: Oryza sativa; test: Crop compatibility post-emergence, greenhouse pot test
Summary of the method: (§3)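 Crops grown in sandy loam in greenhouse pots; treated post-emergence at one-leaf stage, 2–3 weeks after sowing, spraying WP or EC formulations as aqueous suspension/emulsion with 0.5% additive at 600 L/ha. Damage scored visually after about 3 weeks against untreated controls (0% = like control, 100% = dead).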

[31] = system: Zea mays; test: as above
Summary of the method: as §3

[32] = system: Triticum aestivum; test: as above
Summary of the method: as §3

[33] = system: Glycine max; test: as above
Summary of the method: as §3

Q: What does the source list for CON(C)C(=O)COC(=O)C(C)Sc1cc(-n2c(=O)cc(C(F)(F)F)n(C)c2=O)c(F)cc1Cl (centres unmarked) [I.1-242]?
A: Matricaria inodora (Efficacy in %) ([1]; application rate 80 g/ha): 100%; Avena fatua (Efficacy in %) [2]: 80%; Hordeum murinum (Efficacy in %) [3]: 90%; Matricaria inodora (Efficacy in %) ([4]; application rate 80 g/ha): 100%; Veronica persica (Efficacy in %) ([5]; application rate 80 g/ha): 100%; Amaranthus retroflexus (Efficacy in %) ([6]; application rate 80 g/ha): 100%; Polygonum convolvulus (Efficacy in %) ([7]; application rate 80 g/ha): 100%; Pharbitis purpurea (Efficacy in %) ([8]; application rate 80 g/ha): 100%; Abutilon theophrasti (Efficacy in %) ([9]; application rate 80 g/ha): 100%; Setaria viridis (Efficacy in %) ([10]; application rate 80 g/ha): 100%; Alopecurus myosuroides (Efficacy in %) ([11]; application rate 20 g/ha): 90%; Echinochloa crus-galli (Efficacy in %) ([12]; application rate 80 g/ha): 100%; Lolium rigidum (Efficacy in %) [13]: 100%; Stellaria media (Efficacy in %) ([14]; application rate 80 g/ha): 100%; Viola tricolor (Efficacy in %) ([15]; application rate 80 g/ha): 100%; Avena fatua (Efficacy in %) [16]: 80%; Hordeum murinum (Efficacy in %) [17]: 90%; Veronica persica (Efficacy in %) [18]: 100%; Cyperus esculentus (Efficacy in %) ([19]; application rate 80 g/ha): 80%; Amaranthus retroflexus (Efficacy in %) [20]: 100%; Polygonum convolvulus (Efficacy in %) ([21]; application rate 80 g/ha): 100%; Pharbitis purpurea (Efficacy in %) ([22]; application rate 80 g/ha): 100%; Abutilon theophrasti (Efficacy in %) ([23]; application rate 80 g/ha): 100%; Setaria viridis (Efficacy in %) ([24]; application rate 80 g/ha): 100%; Alopecurus myosuroides (Efficacy in %) [25]: 90%; Echinochloa crus-galli (Efficacy in %) [26]: 100%; Lolium rigidum (Efficacy in %) [27]: 100%; Stellaria media (Efficacy in %) ([28]; application rate 80 g/ha): 100%; Viola tricolor (Efficacy in %) ([29]; application rate 80 g/ha): 100%; Oryza sativa (Efficacy in %) ([30]; application rate 5 g/ha): 20%; Zea mays (Efficacy in %) ([31]; application rate 80 g/ha): 20%; Triticum aestivum (Efficacy in %) ([32]; application rate 5 g/ha): 20%

Q: How did the “Matricaria inodora (Efficacy in %)” value ([1]; application rate 320 g/ha) turn out when CCC(Sc1cc(-n2c(=O)cc(C(F)(F)F)n(C)c2=O)c(F)cc1Cl)C(=O)OCCC(=O)OC (centres unmarked) [I.2-2] was run?
A: The value was 100%.

Q: And the “Avena fatua (Efficacy in %)” value [2]?
A: Its value is 80%.

Q: And the “Hordeum murinum (Efficacy in %)” value [3]?
A: Its value is 80%.

Q: What about the “Matricaria inodora (Efficacy in %)” value ([4]; application rate 80 g/ha) of the same molecule?
A: Its value is 100%.

Q: And the “Veronica persica (Efficacy in %)” value ([5]; application rate 20 g/ha)?
A: Its value is 100%.

Q: What about the “Amaranthus retroflexus (Efficacy in %)” value ([6]; application rate 80 g/ha) of the same molecule?
A: The value was 100%.

Q: What about the “Polygonum convolvulus (Efficacy in %)” value ([7]; application rate 80 g/ha) of the same molecule?
A: The value was 100%.

Q: And the “Pharbitis purpurea (Efficacy in %)” value ([8]; application rate 20 g/ha)?
A: The value was 100%.

Q: What about the “Abutilon theophrasti (Efficacy in %)” value ([9]; application rate 80 g/ha) of the same molecule?
A: Its value is 100%.

Q: What about the “Setaria viridis (Efficacy in %)” value ([10]; application rate 80 g/ha) of the same molecule?
A: The value was 100%.

Q: What about the “Alopecurus myosuroides (Efficacy in %)” value ([11]; application rate 80 g/ha) of the same molecule?
A: The value was 100%.

Q: What about the “Echinochloa crus-galli (Efficacy in %)” value ([12]; application rate 80 g/ha) of the same molecule?
A: Its value is 100%.

Q: And the “Lolium rigidum (Efficacy in %)” value [13]?
A: The value was 80%.

Q: What about the “Stellaria media (Efficacy in %)” value ([14]; application rate 80 g/ha) of the same molecule?
A: Its value is 100%.

Q: What about the “Viola tricolor (Efficacy in %)” value ([15]; application rate 80 g/ha) of the same molecule?
A: Its value is 100%.

Q: And the “Hordeum murinum (Efficacy in %)” value [17]?
A: Its value is 100%.

Q: What about the “Veronica persica (Efficacy in %)” value [18] of the same molecule?
A: Its value is 100%.

Q: And the “Cyperus esculentus (Efficacy in %)” value ([19]; application rate 320 g/ha)?
A: Its value is 90%.

Q: And the “Amaranthus retroflexus (Efficacy in %)” value [20]?
A: The value was 100%.

Q: And the “Polygonum convolvulus (Efficacy in %)” value ([21]; application rate 320 g/ha)?
A: The value was 100%.

Q: And the “Pharbitis purpurea (Efficacy in %)” value ([22]; application rate 320 g/ha)?
A: Its value is 100%.

Q: What about the “Abutilon theophrasti (Efficacy in %)” value ([23]; application rate 320 g/ha) of the same molecule?
A: The value was 100%.

Q: And the “Setaria viridis (Efficacy in %)” value ([24]; application rate 320 g/ha)?
A: Its value is 100%.

Q: What about the “Alopecurus myosuroides (Efficacy in %)” value [25] of the same molecule?
A: The value was 100%.

Q: What about the “Echinochloa crus-galli (Efficacy in %)” value [26] of the same molecule?
A: The value was 100%.

Q: What about the “Lolium rigidum (Efficacy in %)” value [27] of the same molecule?
A: The value was 100%.

Q: And the “Stellaria media (Efficacy in %)” value ([28]; application rate 320 g/ha)?
A: Its value is 100%.

Q: What about the “Viola tricolor (Efficacy in %)” value ([29]; application rate 320 g/ha) of the same molecule?
A: The value was 100%.

Q: What about the “Oryza sativa (Efficacy in %)” value ([30]; application rate 5 g/ha) of the same molecule?
A: Its value is 20%.

Q: What about the “Triticum aestivum (Efficacy in %)” value ([32]; application rate 5 g/ha) of the same molecule?
A: The value was 20%.

Q: For CCOC(=O)COC(=O)C(CC)Sc1cc(-n2c(=O)cc(C(F)(F)F)n(C)c2=O)c(F)cc1Cl (centres unmarked) [I.2-43, 2-Ethoxy-2-oxoethyl 2-({2-chloro-4-fluoro-5-[3-methyl-2,6-dioxo-4-(trifluoromethyl)-3,6-dihydropyrimidin-1(2H)-yl]phenyl}sulfanyl)butanoate], which “Matricaria inodora (Efficacy in %)” value ([4]; application rate 20 g/ha) is on record?
A: The value was 100%.

Q: And the “Veronica persica (Efficacy in %)” value ([5]; application rate 20 g/ha)?
A: Its value is 100%.

Q: What about the “Amaranthus retroflexus (Efficacy in %)” value ([6]; application rate 20 g/ha) of the same molecule?
A: The value was 100%.

Q: What about the “Polygonum convolvulus (Efficacy in %)” value ([7]; application rate 20 g/ha) of the same molecule?
A: The value was 100%.

Q: And the “Pharbitis purpurea (Efficacy in %)” value ([8]; application rate 20 g/ha)?
A: Its value is 100%.

Q: And the “Abutilon theophrasti (Efficacy in %)” value ([9]; application rate 20 g/ha)?
A: The value was 100%.

Q: What about the “Setaria viridis (Efficacy in %)” value ([10]; application rate 20 g/ha) of the same molecule?
A: Its value is 100%.

Q: What about the “Echinochloa crus-galli (Efficacy in %)” value ([12]; application rate 20 g/ha) of the same molecule?
A: Its value is 100%.

Q: What about the “Stellaria media (Efficacy in %)” value ([14]; application rate 20 g/ha) of the same molecule?
A: Its value is 100%.

Q: What about the “Viola tricolor (Efficacy in %)” value ([15]; application rate 20 g/ha) of the same molecule?
A: Its value is 100%.

Q: What about the “Oryza sativa (Efficacy in %)” value ([30]; application rate 20 g/ha) of the same molecule?
A: Its value is 20%.

Q: What about the “Glycine max (Efficacy in %)” value ([33]; application rate 5 g/ha) of the same molecule?
A: Its value is 20%.

Q: What about the “Zea mays (Efficacy in %)” value ([31]; application rate 20 g/ha) of the same molecule?
A: Its value is 20%.

Q: And the “Triticum aestivum (Efficacy in %)” value ([32]; application rate 20 g/ha)?
A: Its value is 10%.

Q: CCOC(=O)CCOC(=O)C(CC(C)C)Sc1cc(-n2c(=O)c(C)c(C(F)(F)F)n(C)c2=O)c(F)cc1Cl (centres unmarked) [I.14-3] was tested. Which “Veronica persica (Efficacy in %)” value ([5]; application rate 20 g/ha) did it give?
A: Its value is 100%.

Q: And the “Amaranthus retroflexus (Efficacy in %)” value ([6]; application rate 20 g/ha)?
A: The value was 100%.

Q: And the “Polygonum convolvulus (Efficacy in %)” value ([7]; application rate 20 g/ha)?
A: The value was 100%.

Q: What about the “Pharbitis purpurea (Efficacy in %)” value ([8]; application rate 20 g/ha) of the same molecule?
A: The value was 100%.

Q: And the “Abutilon theophrasti (Efficacy in %)” value ([9]; application rate 20 g/ha)?
A: The value was 100%.

Q: And the “Setaria viridis (Efficacy in %)” value ([10]; application rate 20 g/ha)?
A: The value was 90%.

Q: What about the “Viola tricolor (Efficacy in %)” value ([15]; application rate 20 g/ha) of the same molecule?
A: Its value is 100%.

Q: What about the “Oryza sativa (Efficacy in %)” value ([30]; application rate 20 g/ha) of the same molecule?
A: Its value is 0%.

Q: What about the “Glycine max (Efficacy in %)” value ([33]; application rate 20 g/ha) of the same molecule?
A: The value was 20%.

Q: And the “Triticum aestivum (Efficacy in %)” value ([32]; application rate 20 g/ha)?
A: Its value is 20%.
